ChEMBL document CHEMBL4414672, “Synthesis of certain benzothieno[3,2-d]pyrimidine derivatives as a selective SIRT2 inhibitors” (Eur J Med Chem, 2020)

Key:
Type in all cases: functional
HCT-15 = experiment: Growth inhibition of human HCT15 cells at 10^-5 M incubated for 48 hrs by sulforhodamine B assay; settings: HCT-15, 48 h, read-out: GI
HOP-92 = experiment: Growth inhibition of human HOP92 cells at 10^-5 M incubated for 48 hrs by sulforhodamine B assay; settings: HOP-92, 48 h, read-out: GI
SNB-19 = experiment: Growth inhibition of human SNB19 cells at 10^-5 M incubated for 48 hrs by sulforhodamine B assay; settings: SNB-19, 48 h, read-out: GI
CCRF-CEM = experiment: Growth inhibition of human CCRF-CEM cells at 10^-5 M incubated for 48 hrs by sulforhodamine B assay; settings: read-out: GI
ACHN = experiment: Growth inhibition of human ACHN cells at 10^-5 M incubated for 48 hrs by sulforhodamine B assay; settings: read-out: GI
IGROV-1 = experiment: Growth inhibition of human IGROV1 cells at 10^-5 M incubated for 48 hrs by sulforhodamine B assay; settings: IGROV-1, 48 h, read-out: GI
TK-10 = experiment: Growth inhibition of human TK10 cells at 10^-5 M incubated for 48 hrs by sulforhodamine B assay; settings: TK-10, 48 h, read-out: GI
HCT-116 = experiment: Growth inhibition of human HCT116 cells at 10^-5 M incubated for 48 hrs by sulforhodamine B assay; settings: HCT-116, 48 h, read-out: GI
NCI/ADR-RES = experiment: Growth inhibition of human NCI/ADR-RES cells at 10^-5 M incubated for 48 hrs by sulforhodamine B assay; settings: read-out: GI
SK-OV-3 = experiment: Growth inhibition of human SKOV3 cells at 10^-5 M incubated for 48 hrs by sulforhodamine B assay; settings: SK-OV-3, 48 h, read-out: GI
T47D = experiment: Growth inhibition of human T47D cells at 10^-5 M incubated for 48 hrs by sulforhodamine B assay; settings: read-out: GI
U-251 = experiment: Growth inhibition of human U251 cells at 10^-5 M incubated for 48 hrs by sulforhodamine B assay; settings: U-251, 48 h, read-out: GI
M14 = experiment: Growth inhibition of human M14 cells at 10^-5 M incubated for 48 hrs by sulforhodamine B assay; settings: M14, 48 h, read-out: GI
SW-620 = experiment: Growth inhibition of human SW620 cells at 10^-5 M incubated for 48 hrs by sulforhodamine B assay; settings: SW-620, 48 h, read-out: GI
NCI-H322M = experiment: Growth inhibition of human NCI-H322M cells at 10^-5 M incubated for 48 hrs by sulforhodamine B assay; settings: read-out: GI
SF-268 = experiment: Growth inhibition of human SF268 cells at 10^-5 M incubated for 48 hrs by sulforhodamine B assay; settings: SF-268, 48 h, read-out: GI
SK-MEL-2 = experiment: Growth inhibition of human SK-MEL-2 cells at 10^-5 M incubated for 48 hrs by sulforhodamine B assay; settings: SK-MEL-2, 48 h, read-out: GI
EKVX = experiment: Growth inhibition of human EKVX cells at 10^-5 M incubated for 48 hrs by sulforhodamine B assay; settings: read-out: GI
NCI-H460 = experiment: Growth inhibition of human NCI-H460 cells at 10^-5 M incubated for 48 hrs by sulforhodamine B assay; settings: NCI-H460, 48 h, read-out: GI
SF-295 = experiment: Growth inhibition of human SF295 cells at 10^-5 M incubated for 48 hrs by sulforhodamine B assay; settings: SF-295, 48 h, read-out: GI
OVCAR-3 = experiment: Growth inhibition of human OVCAR3 cells at 10^-5 M incubated for 48 hrs by sulforhodamine B assay; settings: OVCAR-3, 48 h, read-out: GI
NCI-H23 = experiment: Growth inhibition of human NCI-H23 cells at 10^-5 M incubated for 48 hrs by sulforhodamine B assay; settings: NCI-H23, 48 h, read-out: GI
SF-539 = experiment: Growth inhibition of human SF539 cells at 10^-5 M incubated for 48 hrs by sulforhodamine B assay; settings: SF-539, 48 h, read-out: GI
COLO 205 = experiment: Growth inhibition of human COLO205 cells at 10^-5 M incubated for 48 hrs by sulforhodamine B assay; settings: COLO 205, 48 h, read-out: GI
SNB-75 = experiment: Growth inhibition of human SNB75 cells at 10^-5 M incubated for 48 hrs by sulforhodamine B assay; settings: SNB-75, 48 h, read-out: GI
MDA-MB-435 = experiment: Growth inhibition of human MDA-MB-435 cells at 10^-5 M incubated for 48 hrs by sulforhodamine B assay; settings: MDA-MB-435, 48 h, read-out: GI
SN12C = experiment: Growth inhibition of human SN12C cells at 10^-5 M incubated for 48 hrs by sulforhodamine B assay; settings: read-out: GI
Hs-578T = experiment: Growth inhibition of human Hs 578T cells at 10^-5 M incubated for 48 hrs by sulforhodamine B assay; settings: read-out: GI
NCI-H522 = experiment: Growth inhibition of human NCI-H522 cells at 10^-5 M incubated for 48 hrs by sulforhodamine B assay; settings: NCI-H522, 48 h, read-out: GI
PC-3 = experiment: Growth inhibition of human PC3 cells at 10^-5 M incubated for 48 hrs by sulforhodamine B assay; settings: PC-3, 48 h, read-out: GI
A498 = experiment: Growth inhibition of human A498 cells at 10^-5 M incubated for 48 hrs by sulforhodamine B assay; settings: A498, 48 h, read-out: GI
OVCAR-4 = experiment: Growth inhibition of human OVCAR4 cells at 10^-5 M incubated for 48 hrs by sulforhodamine B assay; settings: OVCAR-4, 48 h, read-out: GI
SK-MEL-5 = experiment: Growth inhibition of human SK-MEL-5 cells at 10^-5 M incubated for 48 hrs by sulforhodamine B assay; settings: SK-MEL-5, 48 h, read-out: GI
K562 = experiment: Growth inhibition of human K562 cells at 10^-5 M incubated for 48 hrs by sulforhodamine B assay; settings: K562, 48 h, read-out: GI
LOX IMVI = experiment: Growth inhibition of human LOXIMVI cells at 10^-5 M incubated for 48 hrs by sulforhodamine B assay; settings: read-out: GI
A549 = experiment: Growth inhibition of human A549/ATCC cells at 10^-5 M incubated for 48 hrs by sulforhodamine B assay; settings: A549, 48 h, read-out: GI
KM12 = experiment: Growth inhibition of human KM12 cells at 10^-5 M incubated for 48 hrs by sulforhodamine B assay; settings: KM12, 48 h, read-out: GI
OVCAR-8 = experiment: Growth inhibition of human OVCAR8 cells at 10^-5 M incubated for 48 hrs by sulforhodamine B assay; settings: OVCAR-8, 48 h, read-out: GI
Malme-3M = experiment: Growth inhibition of human MALME-3M cells at 10^-5 M incubated for 48 hrs by sulforhodamine B assay; settings: read-out: GI

| Structure (SMILES) | inhibition of growth at 10 µM (HCT-15) [%] | inhibition of growth at 10 µM (HOP-92) [%] | inhibition of growth at 10 µM (SNB-19) [%] | inhibition of growth at 10 µM (CCRF-CEM) [%] | inhibition of growth at 10 µM (ACHN) [%] | inhibition of growth at 10 µM (IGROV-1) [%] | inhibition of growth at 10 µM (TK-10) [%] | inhibition of growth at 10 µM (HCT-116) [%] | inhibition of growth at 10 µM (NCI/ADR-RES) [%] | inhibition of growth at 10 µM (SK-OV-3) [%] | inhibition of growth at 10 µM (T47D) [%] | inhibition of growth at 10 µM (U-251) [%] | inhibition of growth at 10 µM (M14) [%] | inhibition of growth at 10 µM (SW-620) [%] | inhibition of growth at 10 µM (NCI-H322M) [%] | inhibition of growth at 10 µM (SF-268) [%] | inhibition of growth at 10 µM (SK-MEL-2) [%] | inhibition of growth at 10 µM (EKVX) [%] | inhibition of growth at 10 µM (NCI-H460) [%] | inhibition of growth at 10 µM (SF-295) [%] | other results |
| --- | --- | --- | --- | --- | --- | --- | --- | --- | --- | --- | --- | --- | --- | --- | --- | --- | --- | --- | --- | --- | --- |
| CCOC(=O)CSC1=Nc2c(sc3ccc(Cl)cc23)C(c2cccc([N+](=O)[O-])c2)N1 (stereo not drawn) | -2.2 | -10.1 | -0.3 | -8.55 | 6.61 | 21.6 | -16.2 | 3.88 | 1.65 | 8.27 | 22.6 | 3.38 | -3.62 | -4.96 | 7.77 | 3.8 | -6.23 | 15.9 | -0.74 | -0.53 | inhibition of growth at 10 µM (OVCAR-3): 0.63%; inhibition of growth at 10 µM (NCI-H23): 9.36%; inhibition of growth at 10 µM (SF-539): -3.84%; inhibition of growth at 10 µM (COLO 205): -3.41%; inhibition of growth at 10 µM (SNB-75): 11.3%; inhibition of growth at 10 µM (MDA-MB-435): -10.6%; inhibition of growth at 10 µM (SN12C): 2.9%; inhibition of growth at 10 µM (Hs-578T): -3.04%; inhibition of growth at 10 µM (NCI-H522): 4.34%; inhibition of growth at 10 µM (PC-3): 9.33%; inhibition of growth at 10 µM (A498): 6.9%; inhibition of growth at 10 µM (OVCAR-4): -4.53%; inhibition of growth at 10 µM (SK-MEL-5): 3.95%; inhibition of growth at 10 µM (K562): 10.3%; inhibition of growth at 10 µM (LOX IMVI): 0.14%; inhibition of growth at 10 µM (A549): 2.51%; inhibition of growth at 10 µM (KM12): -0.19%; inhibition of growth at 10 µM (OVCAR-8): -1.34%; inhibition of growth at 10 µM (Malme-3M): 5.55% |
| N=C1Nc2c(sc3ccc(Cl)cc23)C(c2cccc([N+](=O)[O-])c2)N1 (stereo not drawn) | -4.21 | 19.2 | 16.8 | 8.41 | 22.8 | 4.94 | 40.3 | 2.65 | 8.91 | -1.73 | 1.02 | 0.68 | -5.05 | 3.17 | 4.7 | -1.81 | -19.5 | 15.1 | 14.7 | -5.78 | inhibition of growth at 10 µM (OVCAR-3): 10.7%; inhibition of growth at 10 µM (NCI-H23): 5.31%; inhibition of growth at 10 µM (SF-539): 1.35%; inhibition of growth at 10 µM (COLO 205): -31%; inhibition of growth at 10 µM (SNB-75): -4.54%; inhibition of growth at 10 µM (MDA-MB-435): -4.98%; inhibition of growth at 10 µM (SN12C): -19.7%; inhibition of growth at 10 µM (Hs-578T): -17.4%; inhibition of growth at 10 µM (NCI-H522): -4.45%; inhibition of growth at 10 µM (PC-3): -10.1%; inhibition of growth at 10 µM (A498): 9.1%; inhibition of growth at 10 µM (OVCAR-4): -4.7%; inhibition of growth at 10 µM (SK-MEL-5): -2.55%; inhibition of growth at 10 µM (K562): 9.47%; inhibition of growth at 10 µM (LOX IMVI): -9.93%; inhibition of growth at 10 µM (A549): 20.4%; inhibition of growth at 10 µM (KM12): 6.62%; inhibition of growth at 10 µM (OVCAR-8): 9.4%; inhibition of growth at 10 µM (Malme-3M): -4.49% |
